Source: ChEMBL document CHEMBL3885881, “DrugMatrix”

Organism: Rattus norvegicus
Experiment: DrugMatrix - Regimen: Daily Repeat
Type: toxicity, organism-based, Sprague-Dawley
Parameters: regimen Daily Repeat, gender Male, age 6-8 weeks
Details: in vivo, po, route oral GAVAGE, vehicle .5 % CMC; for ABSOLUTE BASOPHIL / ABSOLUTE EOSINOPHIL / ABSOLUTE LYMPHOCYTE / ABSOLUTE MONOCYTE / ABSOLUTE SEGMENTED NEUTROPHIL / BASOPHIL / EOSINOPHIL / ERYTHROCYTE COUNT / HEMATOCRIT / HEMOGLOBIN / LEUKOCYTE COUNT / LYMPHOCYTE / MEAN CORPUSCULAR HEMOGLOBIN / MEAN CORPUSCULAR HEMOGLOBIN CONCENTRATION / MEAN CORPUSCULAR VOLUME / MONOCYTE / NEUTROPHIL / NUCLEATED RED BLOOD CELLS / PLATELET COUNT: tissue Blood; for ALANINE AMINOTRANSFERASE / ALBUMIN / ALKALINE PHOSPHATASE / ASPARTATE AMINOTRANSFERASE / BLOOD UREA NITROGEN / CARBON DIOXIDE / CHLORIDE / CHOLESTEROL / CREATINE PHOSPHOKINASE / CREATININE / GLUCOSE / LACTATE DEHYDROGENASE / LIPASE / PHOSPHORUS / POTASSIUM / SODIUM / TOTAL BILIRUBIN / TOTAL PROTEIN / URIC ACID: tissue Plasma
[1] = 200 mg/kg, 120 h, dose level Low, time 5 day
[2] = 1500 mg/kg, 72 h, dose level High, time 3 day
[3] = 1500 mg/kg, 120 h, dose level High, time 5 day

CCn1cc(C(=O)O)c(=O)c2cc(F)c(N3CCNCC3)cc21 [NORFLOXACIN]
ABSOLUTE BASOPHIL [1]: 0 CELLS/uL
ABSOLUTE EOSINOPHIL [1]: 0 CELLS/uL
ABSOLUTE LYMPHOCYTE [1]: 13445.67 CELLS/uL
ABSOLUTE MONOCYTE [1]: 43.67 CELLS/uL
ABSOLUTE SEGMENTED NEUTROPHIL [1]: 644 CELLS/uL
BASOPHIL [1]: 0%
EOSINOPHIL [1]: 0%
ERYTHROCYTE COUNT [1]: 5.72 x10E6/uL
HEMATOCRIT [1]: 35.23%
HEMOGLOBIN [1]: 14.43 G/DL
LEUKOCYTE COUNT [1]: 14.13 x10E3/uL
LYMPHOCYTE [1]: 95%
MEAN CORPUSCULAR HEMOGLOBIN [1]: 25.37 pg
MEAN CORPUSCULAR HEMOGLOBIN CONCENTRATION [1]: 41 G/DL
MEAN CORPUSCULAR VOLUME [1]: 61.8 fL
MONOCYTE [1]: 0.33%
NEUTROPHIL [1]: 4.67%
NUCLEATED RED BLOOD CELLS [1]: 0.33 /100WBC
PLATELET COUNT [1]: 1391.67 x10E3/uL
ALANINE AMINOTRANSFERASE [1]: 60.33 u/L
ALBUMIN [1]: 4.43 G/DL
ALKALINE PHOSPHATASE [1]: 370.33 u/L
ASPARTATE AMINOTRANSFERASE [1]: 99 u/L
BLOOD UREA NITROGEN [1]: 15.67 mg/dL
CARBON DIOXIDE [1]: 26.67 mmol/L
CHLORIDE [1]: 102 MEQ/L
CHOLESTEROL [1]: 45.67 mg/dL
CREATINE PHOSPHOKINASE [1]: 920 u/L
CREATININE [1]: 0.25 mg/dL
GLUCOSE [1]: 138.67 mg/dL
LACTATE DEHYDROGENASE [1]: 195.67 u/L
LIPASE [1]: 9.33 u/L
PHOSPHORUS [1]: 12.13 mg/dL
POTASSIUM [1]: 6.16 MEQ/L
SODIUM [1]: 145 MEQ/L
TOTAL BILIRUBIN [1]: 0.2 mg/dL
TOTAL PROTEIN [1]: 6.3 G/DL
URIC ACID [1]: 1.53 mg/dL
ABSOLUTE BASOPHIL [2]: 0 CELLS/uL
ABSOLUTE EOSINOPHIL [2]: 108.33 CELLS/uL
ABSOLUTE LYMPHOCYTE [2]: 13773 CELLS/uL
ABSOLUTE MONOCYTE [2]: 98.33 CELLS/uL
ABSOLUTE SEGMENTED NEUTROPHIL [2]: 1087 CELLS/uL
BASOPHIL [2]: 0%
EOSINOPHIL [2]: 0.67%
ERYTHROCYTE COUNT [2]: 5.77 x10E6/uL
HEMATOCRIT [2]: 37.03%
HEMOGLOBIN [2]: 14.53 G/DL
LEUKOCYTE COUNT [2]: 15.07 x10E3/uL
LYMPHOCYTE [2]: 91.33%
MEAN CORPUSCULAR HEMOGLOBIN [2]: 25.2 pg
MEAN CORPUSCULAR HEMOGLOBIN CONCENTRATION [2]: 39.23 G/DL
MEAN CORPUSCULAR VOLUME [2]: 64.2 fL
MONOCYTE [2]: 0.67%
NEUTROPHIL [2]: 7.33%
NUCLEATED RED BLOOD CELLS [2]: 0 /100WBC
PLATELET COUNT [2]: 1268.67 x10E3/uL
ALANINE AMINOTRANSFERASE [2]: 62.67 u/L
ALBUMIN [2]: 4.2 G/DL
ALKALINE PHOSPHATASE [2]: 453 u/L
ASPARTATE AMINOTRANSFERASE [2]: 76 u/L
BLOOD UREA NITROGEN [2]: 16 mg/dL
CARBON DIOXIDE [2]: 32.33 mmol/L
CHLORIDE [2]: 101.33 MEQ/L
CHOLESTEROL [2]: 46.67 mg/dL
CREATINE PHOSPHOKINASE [2]: 192 u/L
CREATININE [2]: 0.24 mg/dL
GLUCOSE [2]: 128 mg/dL
LACTATE DEHYDROGENASE [2]: 150 u/L
LIPASE [2]: 9.33 u/L
PHOSPHORUS [2]: 11.07 mg/dL
POTASSIUM [2]: 6.55 MEQ/L
SODIUM [2]: 147.2 MEQ/L
TOTAL BILIRUBIN [2]: 0.13 mg/dL
TOTAL PROTEIN [2]: 6 G/DL
URIC ACID [2]: 1.13 mg/dL
ABSOLUTE BASOPHIL [3]: 0 CELLS/uL
ABSOLUTE EOSINOPHIL [3]: 0 CELLS/uL
ABSOLUTE LYMPHOCYTE [3]: 15656 CELLS/uL
ABSOLUTE MONOCYTE [3]: 107.67 CELLS/uL
ABSOLUTE SEGMENTED NEUTROPHIL [3]: 603 CELLS/uL
BASOPHIL [3]: 0%
EOSINOPHIL [3]: 0%
ERYTHROCYTE COUNT [3]: 5.97 x10E6/uL
HEMATOCRIT [3]: 36.5%
HEMOGLOBIN [3]: 14.8 G/DL
LEUKOCYTE COUNT [3]: 16.37 x10E3/uL
LYMPHOCYTE [3]: 95.67%
MEAN CORPUSCULAR HEMOGLOBIN [3]: 24.83 pg
MEAN CORPUSCULAR HEMOGLOBIN CONCENTRATION [3]: 40.53 G/DL
MEAN CORPUSCULAR VOLUME [3]: 61.23 fL
MONOCYTE [3]: 0.67%
NEUTROPHIL [3]: 3.67%
NUCLEATED RED BLOOD CELLS [3]: 0 /100WBC
PLATELET COUNT [3]: 1304.33 x10E3/uL
ALANINE AMINOTRANSFERASE [3]: 82 u/L
ALBUMIN [3]: 4.47 G/DL
ALKALINE PHOSPHATASE [3]: 305.67 u/L
ASPARTATE AMINOTRANSFERASE [3]: 89.67 u/L
BLOOD UREA NITROGEN [3]: 17.33 mg/dL
CARBON DIOXIDE [3]: 22.33 mmol/L
CHLORIDE [3]: 102.33 MEQ/L
CHOLESTEROL [3]: 48 mg/dL
CREATINE PHOSPHOKINASE [3]: 264 u/L
CREATININE [3]: 0.43 mg/dL
GLUCOSE [3]: 145.33 mg/dL
LACTATE DEHYDROGENASE [3]: 298.67 u/L
LIPASE [3]: 12 u/L
PHOSPHORUS [3]: 10.97 mg/dL
POTASSIUM [3]: 6.62 MEQ/L
SODIUM [3]: 145.07 MEQ/L
TOTAL BILIRUBIN [3]: 0.13 mg/dL
TOTAL PROTEIN [3]: 6.77 G/DL
URIC ACID [3]: 2.07 mg/dL
